Test results published in patent publication US12447149B2, “Formulations of vimseltinib” (Deciphera Pharmaceuticals, LLC, priority 2023, dated 2025).

How the values were obtained:
Format in all cases: physicochemical
[1] = Particle size distribution (PSD) of crystalline dihydrate form and seeds, DMAC-water crystallization
[2] = Particle size analysis by laser diffraction (Malvern Mastersizer 3000, wet dispersion); conditions: volume distribution
Description: Particle size analysis of dihydrate vimseltinib drug substance samples was determined by laser diffraction using a Malvern Mastersizer 3000 instrument in a wet dispersion mode.
Prior to analysis, dihydrate drug substance samples were rotated and inverted in the sample container at least 10 times to ensure homogeneity. Between 20 and 25 mg of sample was weighed into a Malvern Glass tube. 20 mL of the Dispersant Solution (0.1% Span 85 in Isoparaffin G) was added and vortexed until a homogeneous suspension was obtained (˜30 s). The sample was then placed in a Vibra-Cell ultrasonic processor. The amplitude was set to the target of 30% (4 Watts) using an external probe (Vibra-Cell) during 90 sec.
After background measurement, the sample dispersion was slowly added to the dispersion unit of the instrument to achieve an obscuration level target of 5%. The sample was stirred at 3250 rpm for at least 1 minute to ensure dispersion and stabilization of the sample. After stabilization, the measurement was started and performed using a Malvern Mastersizer 3000 according to the method conditions provided in Table 17.

[3] = Static storage stability of crystalline dihydrate and anhydrous forms (XRPD, DSC, KF weekly for four weeks)
Description: The stability of crystalline dihydrate and anhydrous forms of the compound represented by Formula (I) at varying relative humidity (RH) and temperature was investigated.
For example, the stability of crystalline dihydrate and anhydrous forms of the compound represented by Formula (I), as prepared according to Example 1 and Example 2, respectively, was studied under other conditions by placing aliquots of each form in static storage at conditions of 40° C./75% RH, 25° C./97% RH, 40° C./0% RH and 25° C./0% RH and analyzing the aliquots once weekly for four weeks using XRPD, DSC, and KF.

[4] = Hydration experiment: slurry of crystalline anhydrous form in deionized water, heat-cool cycles; conditions: 4-hour heat-cool cycles between 40° C. and room temperature for 72 hours
Description: In a hydration experiment, a slurry of the crystalline anhydrous form of the compound represented by Formula (I) and deionized water was subjected to successive 4-hour heat-cool cycles between 40° C. and room temperature for 72 hours.

[5] = Hydration of crystalline anhydrous form in low water activity solvents (XRPD); conditions: Ambient
Description: The hydration of the crystalline anhydrous form was studied using aqueous solvent systems with low water activity of 0.1. Slurries of the crystalline anhydrous form in the respective solvent were agitated for 6 days at room temperature. Aliquots of isolated materials were analyzed after 24, 48, and 144 hours of agitation. Table 12 summarizes the experiment conditions and isolated crystalline forms, as determined by XRPD.

[6] = milled seeds of crystalline dihydrate form used in DMAC-water crystallization, listed as 1
[7] = jet-milled seed batch, crystallization 1 at 60° C. with 7% seeds, crystallization 2 at 64° C. with 5% seeds
[8] = milled seeds of crystalline dihydrate form used in DMAC-water crystallization, listed as 3
[9] = crystallization outputs using seeds of a smaller size (about 1/3/5 μm)
[10] = crystallized with milled seeds of about 3/6/12 μm, seeding about 65° C., about 3% seeds, laboratory and production scale

**Q.** For Cc1nc(-c2cnc(NC(C)C)n(C)c2=O)ccc1Oc1ccnc(-c2cnn(C)c2)c1.O.O [Lot 1], which “Particle Size d10” value [1, 6] is on record?
**A.** The value was 2 microns.

**Q.** What about the “Particle Size d50” value [1, 6] of the same compound?
**A.** The value was 5 microns.

**Q.** What about the “Particle Size d90” value [1, 6] of the same compound?
**A.** The value was 13 microns.

**Q.** What about the “D(10)” value ([2]; listed as 1) of the same compound?
**A.** Its value is 9 μm.

**Q.** What about the “D(50)” value ([2]; listed as 1) of the same compound?
**A.** Its value is 29 μm.

**Q.** What about the “D(90)” value ([2]; listed as 1) of the same compound?
**A.** The value was 59 μm.

**Q.** Which results are given for Cc1nc(-c2cnc(NC(C)C)n(C)c2=O)ccc1Oc1ccnc(-c2cnn(C)c2)c1.O.O [Lot 4]?
**A.** D(10) ([2]; listed as 4): 7 μm; D(50) ([2]; listed as 4): 19 μm; D(90) ([2]; listed as 4): 36 μm

**Q.** Which results are given for Cc1nc(-c2cnc(NC(C)C)n(C)c2=O)ccc1Oc1ccnc(-c2cnn(C)c2)c1.O.O [Crystalline dihydrate form of the compound represented by Fo] [listing 1 of 2 here]?
**A.** Particle Size d10 [1, 7]: 3.9 microns; Particle Size d50 [1, 7]: 8.5 microns; Particle Size d90 [1, 7]: 16.0 microns

**Q.** With Cc1nc(-c2cnc(NC(C)C)n(C)c2=O)ccc1Oc1ccnc(-c2cnn(C)c2)c1.O.O [Crystalline dihydrate form of the compound represented by Fo] [listing 2 of 2 here] as the compound, how does the “Particle Size d10” value [1, 7] read?
**A.** Its value is 3.6 microns.

**Q.** What about the “Particle Size d50” value [1, 7] of the same compound?
**A.** Its value is 8.4 microns.

**Q.** What about the “Particle Size d90” value [1, 7] of the same compound?
**A.** The value was 16.2 microns.

**Q.** With Cc1nc(-c2cnc(NC(C)C)n(C)c2=O)ccc1Oc1ccnc(-c2cnn(C)c2)c1 [crystalline anhydrous form] as the compound, how does the “stability of the solid form on storage” value ([3]; all storage conditions (40° C./75% RH, 25° C./97% RH, 40° C./0% RH, 25° C./0% RH), after 4 weeks) read?
**A.** The value was “remained stable”.

**Q.** And the “isolated solid form by XRPD” value [4]?
**A.** The value was “crystalline dihydrate form”.

**Q.** What about the “Observed Forms” value ([5]; Acetone/water (99:1), 24 h) of the same compound?
**A.** Its value is “Anhydrous”.

**Q.** What about the “Observed Forms” value ([5]; Acetone/water (99:1), 144 h) of the same compound?
**A.** Its value is “Anhydrous”.

**Q.** What about the “Observed Forms” value ([5]; MEK/water (99:1), 24 h) of the same compound?
**A.** Its value is “Anhydrous”.

**Q.** And the “Observed Forms” value ([5]; MEK/water (99:1), 144 h)?
**A.** The value was “Dihydrate”.

**Q.** With Cc1nc(-c2cnc(NC(C)C)n(C)c2=O)ccc1Oc1ccnc(-c2cnn(C)c2)c1.O.O [Lot 3] as the compound, how does the “Particle Size d10” value [1, 8] read?
**A.** The value was 3 microns.

**Q.** What about the “Particle Size d50” value [1, 8] of the same compound?
**A.** The value was 6 microns.

**Q.** What about the “Particle Size d90” value [1, 8] of the same compound?
**A.** Its value is 12 microns.

**Q.** What about the “D(10)” value ([2]; listed as 3) of the same compound?
**A.** Its value is 6 μm.

**Q.** What about the “D(50)” value ([2]; listed as 3) of the same compound?
**A.** The value was 17 μm.

**Q.** What about the “D(90)” value ([2]; listed as 3) of the same compound?
**A.** The value was 33 μm.

**Q.** With Cc1nc(-c2cnc(NC(C)C)n(C)c2=O)ccc1Oc1ccnc(-c2cnn(C)c2)c1.O.O [crystalline dihydrate form ground in a mortar and pestle] as the compound, how does the XRPD ([3]; storage 40° C./0% RH, Week 1) read?
**A.** The XRPD was “Pattern 4 and the crystalline anhydrous form were observed”.

**Q.** For Cc1nc(-c2cnc(NC(C)C)n(C)c2=O)ccc1Oc1ccnc(-c2cnn(C)c2)c1 [vimseltinib], which “Particle Size d10” value [1, 9] is on record?
**A.** The value was “about 4 μm”.

**Q.** And the “Particle Size d50” value [1, 9]?
**A.** The value was “about 8 μm”.

**Q.** And the “Particle Size d90” value [1, 9]?
**A.** The value was “about 16 μm”.

**Q.** What about the “Particle Size d10” value [1, 10] of the same compound?
**A.** Its value is 6-8 μm.

**Q.** And the “Particle Size d50” value [1, 10]?
**A.** Its value is 16-22 μm.

**Q.** And the “Particle Size d90” value [1, 10]?
**A.** Its value is 33-40 μm.
